Entries after “also recorded” stand apart in the source; their conditions may differ.
Tests used:
[1] = tested on: stroke; details: in vivo
[2] = target: rat serum albumin (Rattus norvegicus, UniProt P02770); details: RadioHPLC
[3] = tested on: apoptotic Jurkat lymphocytes; assay: In vitro binding tests, apoptotic vs viable cells; details: for binding to apoptotic cells: apoptotic Jurkat lymphocytes
Description: In vitro binding tests. The PtdE-binding activity of ^99mTc-HYNIC-Duramycin was examined using binding assays in vitro. A good source of exposed PtdE was apoptotic Jurkat lymphocytes incubated with 5 μM final concentration of camptothecin at 37° C. in a humidified atmosphere with 5% CO2. Untreated control or treated cells were harvested by centrifugation at 800 g for 5 min and re-suspended at 2×10^6 per ml. Radiolabeled Duramycin or Duramycin^1 (inactivated Duramycin) was added to each ml of cells at a final concentration of 100 nM, and the binding was allowed to proceed for 5 min at room temperature. The mixture was then loaded onto a layer of Histopaque. After centrifugation at 800 g for 5 min, cell pellet was collected at the bottom of the tube below the Histopaque layer, whereas the media that contained the non-bound radioactivity will remain above Histopaque. The aqueous supernatant was removed by gentle aspiration. The tip of the tube that contains the pellet was cut off using a hot scalpel. Bound radioactivity was determined by direct gamma counting at an energy window of 140±15 keV.

[4] = tested on: radiation-induced cell death; assay: Imaging of radiation-induced cell death after whole-body irradiation; type: in vivo, rat; details: rats, 15 Gy whole-body ionizing irradiation
From the text: In an experimental example, 99mTc-Duramycin imaging was used to detect the distribution of radiation-prone tissues after exposure to high-dose ionizing irradiation. […] Control rats were not exposed to ionizing radiation. […] The most radiation-susceptible tissues include the thymus (arrow) and bone marrows (arrow heads and bottom insets).

[5] = Competition assay with phospholipid liposomes on apoptotic cells; type: binding; details: for binding to apoptotic cells in the presence of PtdE-containing liposomes: increasing concentration of PtdC/PtdE liposomes
Description: Preparation of liposomes. Liposomes with the following chemical compositions were made: PtdC (100%), PtdC/PtdE (50/50, w/w), PtdC/PtdS (50/50, w/w), PtdC/PtdG (50/50, w/w). Solid phospholipids were weighed to contain 2 mg for each type of lipids in separate glass test tubes (10×140 mm). One ml of chloroform was used to completely dissolve the phospholipid in each tube. The chloroform was evaporated under a stream of nitrogen where the dried phospholipids formed a thin film of residue on the test tube wall. The samples were thoroughly dried under vacuum overnight. The next morning each sample was re-suspended in 2 ml of HEPES buffer (15 mM HEPES, 120 mM NaCl, pH 7.4) at 45° C. Each suspension was sonicated for 2-5 min at 15 sec each cycle until the mixture turned into an opaque appearance, which indicated the formation of multi-laminar liposomes. The samples were kept on ice until use.
Competition assay. The retention of the binding activity was determined using a competition assay in the presence of PtdE-containing liposomes. PtdC/PtdE liposomes was prepared as described herein. Binding assay was carried out in triplicate in the presence of increasing amount of PtdC/PtdE liposomes, from 1 nM to 10 μM final concentration in 4-fold increments. The radioactivity bound to the cell pellet was determined by gamma counting as described in the precious paragraph. The assay was repeated using liposomes containing other species of closely related phospholipids, including PtdC, PtdG, and PtdS.

[6] = tested on: acute cardiac cell death; assay: Imaging of cardiac cell death after coronary ischemia with or without reperfusion (Example 2); type: in vivo, rat
Description: Cardiology applications include imaging cardiac cell death in heart diseases, such as acute myocardial infarction, myocarditis, myocardial ischemia, and heart transplant rejection. In an experimental example using a rat model, 99mTc-Duramycin was injected into a control rat (FIG. 10A) and a rat in which coronary ischemia was induced, followed by reperfusion (FIG. 10B). Both rats were subsequently imaged. […] A similar experiment was performed using a rat model where induced coronary ischemia was not followed by reperfusion.

[7] = tested on: area-at-risk; assay: Spatial and temporal uptake in the area-at-risk after myocardial ischemia and reperfusion; type: in vivo, rat
[8] = tested on: breast tumor; assay: Imaging in chemical-induced breast cancer model with doxorubicin treatment; type: in vivo, rat
From the text: In an experimental example using a chemical-induced breast cancer model in rats, breast tumors were allowed to grow to palpable size prior to doxorubicin treatment (see arrow, FIG. 9B).

[9] = Description: Blood half-life and pharmacokinetic studies. The animal protocol used was approved by the Institutional Animal Care and Use Committee under the NIH guideline. Healthy Sprague Dawley rats were injected with radiolabeled Duramycin (2.3 nmole) via the tail vein. At each designated time point, including 0, 1, 5, 15, 30, and 60 min, 50 μl of blood was withdrawn from a pre-installed femoral artery catheter and collected in heparinized tubes. The blood sample was centrifuged at 5000 g, and the radioactivity in the cellular and plasma fractions was measured separately by direct gamma counting using an energy window of 140±15 keV. The data output included total blood activity with time, and the activity associated with blood cells and the plasma, respectively. The blood half-life measurement was conducted in triplets. To analyze the pharmacokinetics of the radiopharmaceutical, 10 μl of the plasma or urine sample was analyzed using HPLC method 2 which involves the physical separation of molecules based upon the matrix-solvent interactions.
[10] = tested on: heart transplant rejection; assay: Imaging in rat model of heart transplant rejection; type: in vivo; details: days four and six post transplantation
Description: In another experimental example, using a rat model of heart transplant rejection, rats were given heart allograft transplants, and other rats were given heart isograft transplants. Four and six days after heart tissue transplantation, the rats were injected with 99mTc-Duramycin and subsequently imaged.

[11] = listed as 99mTc-HYNIC-Duramycin^1
[12] = dissected heart tissues, 60 min after injection

Chain of rat serum albumin (P02770 25-608): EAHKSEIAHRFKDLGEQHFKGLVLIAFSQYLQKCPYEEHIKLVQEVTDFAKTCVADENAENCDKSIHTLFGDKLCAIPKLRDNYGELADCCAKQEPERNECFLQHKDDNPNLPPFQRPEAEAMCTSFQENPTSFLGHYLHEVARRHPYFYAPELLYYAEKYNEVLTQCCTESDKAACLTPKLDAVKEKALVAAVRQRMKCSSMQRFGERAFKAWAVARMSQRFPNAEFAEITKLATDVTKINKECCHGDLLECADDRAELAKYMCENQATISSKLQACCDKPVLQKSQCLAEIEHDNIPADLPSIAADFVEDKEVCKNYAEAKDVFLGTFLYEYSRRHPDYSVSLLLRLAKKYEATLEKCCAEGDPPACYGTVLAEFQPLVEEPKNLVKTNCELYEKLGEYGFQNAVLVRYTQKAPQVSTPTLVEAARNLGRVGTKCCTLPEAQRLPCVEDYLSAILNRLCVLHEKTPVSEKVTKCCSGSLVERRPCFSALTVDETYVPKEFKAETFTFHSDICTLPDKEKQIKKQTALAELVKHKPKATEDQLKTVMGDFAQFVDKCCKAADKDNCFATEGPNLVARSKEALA

Structure (SMILES): CC(C)=NNc1ccc(C(=O)NCCCC[C@@H]2NC(=O)[C@@H](N)CS[C@@H](C)[C@H]3NC(=O)[C@H](CC(N)=O)NC(=O)CNC(=O)[C@H]([C@@H](O)C(=O)O)NC(=O)[C@@H]4CSC[C@@H](NC(=O)[C@H](CCC(N)=O)NC2=O)C(=O)N[C@H]2CS[C@@H](C)[C@@H](NC(=O)[C@H](Cc5ccccc5)NC(=O)[C@@H]5CCCN5C(=O)CNC(=O)[C@H](Cc5ccccc5)NC(=O)[C@H](CNCCCC[C@@H](C(=O)O)NC3=O)NC2=O)C(=O)N[C@@H](Cc2ccccc2)C(=O)N[C@@H](C(C)C)C(=O)N4)cn1 [^99mTc-HYNIC-Duramycin, metal not drawn]
- uptake in brain, rat stroke model [1]: Focal uptake of radioactivity is colocalized with regions of stroke
- complex formation between the tracer and albumin [2]: did not result in any complex formation
- binding to apoptotic cells [3]: dramatically enhanced
- binding to apoptotic cells [3, 11]: only at background levels
- radioactivity uptake in viable cells ([3]; viable Jurkat lymphocytes as control): remained near background
- detection of radiation-susceptible tissues [4]: Tissues susceptible to radiation-induced cell death were detected
- binding to apoptotic cells in the presence of liposomes of other phospholipids ([5]; PtdC, PtdG or PtdS liposomes): unable to competitively reduce
- binding to apoptotic cells in the presence of PtdE-containing liposomes [5]: competitively abolished; also recorded: exclusively and competitively diminished
- binding to apoptotic cells in the presence of PtdE-containing liposomes [5, 11]: not competitively diminished
- imaging of acute cardiac cell death after reperfused coronary ischemia ([6]; infarct model rat, 120 minutes after injection): can be seen
- imaging of cardiac cell death following nonreperfused coronary ischemia ([6]; rat model): successfully imaged
- time uptake in infarct tissues remained persistent without significant washout ([7]; after injection): at least 3 hours
- time to approach plateau of uptake ([7]; area-at-risk, after injection): ≤ 10 min
- tracer uptake in the ischemic-non-infarct myocardium ([7]; at 180 min): 2.1±0.3 % ID
- average infarct-to-normal ratio [7, 12]: 31.9
- average ischemic-to-normal ratio [7, 12]: 11.1
- tracer uptake in the ischemic-non-infarct myocardium ([7]; minimum at 60 min): 1.6±0.6 % ID/g
- tracer uptake in the ischemic-non-infarct myocardium ([7]; peak at around 10 min post-injection): 2.7±0.6 % ID/g
- radioactivity uptake in the infarcted myocardium ([7]; plateau by 10 min after injection): 4.3±0.7 % ID/g
- level (plateau) of uptake in the area-at-risk ([7]; rat myocardial ischemia and reperfusion): ~4 % ID/g
- presence of radioactivity in the infarcted tissue reduced (inactivated tracer) ([7]; rat, in vivo): ~60%
- time of maximum radioactivity in the infarcted tissue ([7]; rat, in vivo): about 30 min
- radioactivity uptake in the normal myocardium ([7]; reflecting residual blood pool signal): low
- radioactivity uptake in the infarcted myocardium ([7]; within 3 min after injection): 1.8±0.4 % ID/g
- uptake in treated breast tumor ([8]; after a single cycle of doxorubicin): elevated
- cardiac uptake after doxorubicin ([8]; rat, in vivo): also elevated
- radio-HPLC analysis of plasma samples ([9]; after intravenous injection): majority of the injected radioactivity remained as the parent
- radioactivity in the blood associated with the plasma fraction ([9]; all time points): greater than 95%
- uptake in heart allografts in contrast to isografts [10]: Markedly elevated

— patent US8778303B2, “99mTc-labeled 19 amino acid containing peptide for use as phosphatidylethanolamine binding molecular probe and radiopharmaceutical” (The Medical College of Wisconsin, Inc., priority 2008, dated 2014)
